Source: US12410171B2, “Tropomyosin receptor kinase (TRK) degradation compounds and methods of use” (Cullgen (Shanghai), Inc., priority 2020, dated 2025)
Where two headings read alike, the source gives them in different places.

Experiments:
[1] = biological target: T1, TPM3-TRKA fusion protein (Homo sapiens, UniProt P04629); assay: TPM3-TRKA fusion protein levels in KM12 cells (Western blot); type: cell-based; settings: read-out: Degradation (at 10 nM)
T1 construct: The resulted chimeric proteins always retain the kinase domain of TRK proteins; TPM3 (fusion partner, N-terminal part of tropomyosin alpha-3, P06753); endogenous in cells; host or cells: KM12 colon cancer cells; the other entry of the earlier key: TPM3 (P06753, Tropomyosin alpha-3 chain)
T1 sequence (P04629 with tags, fused parts or gaps): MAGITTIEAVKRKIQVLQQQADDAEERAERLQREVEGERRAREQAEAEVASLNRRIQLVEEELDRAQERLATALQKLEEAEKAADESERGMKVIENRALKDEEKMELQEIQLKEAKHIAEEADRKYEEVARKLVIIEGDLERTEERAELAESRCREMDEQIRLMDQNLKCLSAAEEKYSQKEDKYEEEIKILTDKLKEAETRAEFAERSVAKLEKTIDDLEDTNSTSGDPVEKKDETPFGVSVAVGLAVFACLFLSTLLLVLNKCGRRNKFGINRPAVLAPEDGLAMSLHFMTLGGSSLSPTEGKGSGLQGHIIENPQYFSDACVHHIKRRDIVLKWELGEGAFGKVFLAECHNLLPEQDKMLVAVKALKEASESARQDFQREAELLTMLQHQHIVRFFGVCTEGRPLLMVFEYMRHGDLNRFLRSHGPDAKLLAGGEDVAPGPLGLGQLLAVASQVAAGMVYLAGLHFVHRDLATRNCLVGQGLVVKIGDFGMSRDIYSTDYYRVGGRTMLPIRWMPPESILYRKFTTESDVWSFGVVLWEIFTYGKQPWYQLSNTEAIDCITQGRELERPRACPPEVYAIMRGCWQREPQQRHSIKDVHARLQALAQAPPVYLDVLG
Method in brief: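 TPM3-TRKA levels were assessed by Western blot with chemiluminescent detection and band densitometry, after SDS-PAGE of BCA-normalized RIPA lysates. Before lysis, KM12 cells received DMSO, compounds or matched control compounds at concentrations including 0.1, 1, 10 and 100 nM and 0.4–30 nM. Exposures lasted 4 h, 8–16 h or 16 h.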

[2] = system: KM12 cells; assay: KM12 cell viability (CellTiter-Glo); type: cell-based; settings: Homo sapiens
Method in brief: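 Three-day exposure of KM12 cells (5000/well, RPMI 1640 with 10% FBS, 37 °C, 5% CO2) to compound dilution series, 3-fold over 8 or 11 points (top 1000 nM in the 8-point format) or 2-fold over 12. CellTiter-Glo readout, with IC50 fitted by nonlinear least-squares regression.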

[3] = 16 h, TPM3-TRKA degradation in KM12 cells at 10 nM
[4] = 72 h, KM12 cell viability, 11-point 3-fold serial dilution, 3 days, CellTiter-Glo, read-out: IC50
[5] = 16 h, TPM3-TRKA degradation in KM12 cells at 10 nM compound, category of percentage degradation
[6] = 72 h, KM12 cell viability, CellTiter-Glo, three days treatment, read-out: IC50

In the case of Cn1c(=O)n(C2CCC(=O)NC2=O)c2cccc(CCCCN3CCN(c4cccc(-c5cnc6ccc(N7CCC[C@@H]7c7cccc(F)c7)nn56)n4)CC3)c21 (stereo partly drawn) [TR-241, 3-(4-(4-(4-(6-(6-((R)-2˜ (3-fluorophenyl)pyrrolidin-1-yl)imidazo[1,2-b]pyridazin-3-yl)pyridin-2-yl)piperazin-1-yl)butyl)-3-methyl-2-oxo-2,3-dihydro-1H-benzo[d]imidazol-1-yl)piperidine-2,6-dione], the percent degradation of TPM3-TRKA protein at 0.01 µM ([1]; KM12, 16 h) is reported as over 80% and the IC50 ([2]; KM12, 72 h) is reported as 6.1 nM.
In the case of Cc1ncsc1-c1ccc(CNC(=O)[C@@H]2C[C@@H](O)CN2C(=O)[C@@H](NC(=O)CCCCCCCCC(=O)N2CCN(Cc3ccc(NC(=O)c4coc(N5CCOCC5)n4)c(N4CCC(C(N)=O)CC4)c3)CC2)C(C)(C)C)cc1 [CPD-493, N-(2-(4-carbamoylpiperidin-1-yl)-4-((4-(10-(((S)-1-((2S,4R)-4-hydroxy-2-((4-(4-methylthiazol-5-yl)benzyl)carbamoyl)pyrrolidin-1-yl)-3,3-dimethyl-1-oxobutan-2-yl)amino)-10-oxodecanoyl)piperazin-1-yl)methyl)phenyl)-2-morpholinooxazole-4-carboxamide], the percent degradation of TPM3-TRKA protein at 0.01 µM [1, 3] is reported as 50 to 80% and the IC50 [2, 4] is reported as 46 nM.
Compound Cn1c(=O)n(C2CCC(=O)NC2=O)c2cccc(N3CC(CN4CCN(c5cccc(-c6cnc7ccc(N8CCC[C@@H]8c8cccc(F)c8)nn67)n5)CC4)C3)c21 (stereo partly drawn) [TR-258, 3-(4-(3-((4-(6-(6-((R)-2-(3-fluorophenyl)pyrrolidin-1-yl)imidazo[1,2-b]pyridazin-3-yl)pyridin-2-yl)piperazin-1-yl)methyl)azetidin-1-yl)-3-methyl-2-oxo-2,3-dihydro-1H-benzo[d]imidazol-1-yl)piperidine-2,6-dione] has a percent degradation of TPM3-TRKA protein at 0.01 µM [1, 5] of over 80% and an IC50 [2, 6] of 10.4 nM.
Compound O=C1CCC(N2C(=O)c3ccc(N4CCCC(CN5CCN(c6ccc(C(=O)Nc7n[nH]c8ccc(Cc9cc(F)cc(F)c9)cc78)c(NC7CCOCC7)c6)CC5)C4)cc3C2=O)C(=O)N1 (stereo not shown) [TR-272] has a percent degradation of TPM3-TRKA protein at 0.01 µM [1, 5] of 50 to 80% and an IC50 [2, 6] of 20.1 nM.
CC(C1CN(c2ccc3c(c2)C(=O)N(C2CCC(=O)NC2=O)C3=O)C1)N1CCN(c2ccc(C(=O)Nc3n[nH]c4ccc(Cc5cc(F)cc(F)c5)cc34)c(NC3CCOCC3)c2)CC1 (stereo not shown) [TR-301, N-(5-(3,5-difluorobenzyl)-1H-indazol-3-yl)-4-(4-(1-(1-(2-(2,6-dioxopiperidin-3-yl)-1,3-dioxoisoindolin-5-yl)azetidin-3-yl)ethyl)piperazin-1-yl)-2-((tetrahydro-2H-pyran-4-yl)amino)benzamide] gave a percent degradation of TPM3-TRKA protein at 0.01 µM [1, 5] of over 80% and an IC50 [2, 6] of 6 nM.
Cc1nc2cccc(N3CC(CN4CCN(c5ccc(C(=O)Nc6n[nH]c7ccc(Cc8cc(F)cc(F)c8)cc67)c(NC6CCOCC6)c5)CC4)C3)c2c(=O)n1C1CCC(=O)NC1=O (stereo not shown) [TR-333, N-(5-(3,5˜Difluorobenzyl)-1H-indazol-3-yl)-4-(4-((1-(3-(2,6-dioxopiperidin-3-yl)-2-methyl-4-oxo-3,4-dihydroquinazolin-5-yl)azetidin-3-yl)methyl)piperazin-1-yl)-2-((tetrahydro-2H-pyran-4-yl)amino)benzamide] gave a percent degradation of TPM3-TRKA protein at 0.01 µM [1, 5] of 50 to 80% and an IC50 [2, 6] of 10.5 nM.
COc1ccc(COc2ccc(Cn3c(N)nc4cc(-c5cnn(CC(=O)NCCNc6cccc7c6C(=O)N(C6CCC(=O)NC6=O)C7=O)c5)cnc43)cc2OC)cc1 (stereo not shown) [CPD-498, 2-(4-(2-amino-3-(3-methoxy-4-((4-methoxybenzyl)oxy)benzyl)-3H-imidazo[4,5-b]pyridin-6-yl)-1H-pyrazol-1-yl)-N-(2-((2-(2,6-dioxopiperidin-3-yl)-1,3-dioxoisoindolin-4-yl)amino)ethyl)acetamide] was tested, and the percent degradation of TPM3-TRKA protein at 0.01 µM ([1]; KM12, 16 h) was 50 to 80% and the IC50 ([2]; KM12, 72 h) was 36.5 nM.
Compound O=C1CCC(N2C(=O)c3ccc(NCCOCCOCCOCCC(=O)N4CCC(Nc5cccc(C(=O)Nc6cnn7ccc(N8CCC[C@@H]8c8cc(F)ccc8F)nc67)n5)CC4)cc3C2=O)C(=O)N1 (stereo partly drawn) [CPD-475, N-(5-((R)-2-(2,5-difluorophenyl)pyrrolidin-1-yl)pyrazolo[1,5-a]pyrimidin-3-yl)-6-((1-(3-(2-(2-(2-((2-(2,6-dioxopiperidin-3-yl)-1,3-dioxoisoindolin-5-yl)amino)ethoxy)ethoxy)ethoxy)propanoyl)piperidin-4-yl)amino)picolinamide] has a percent degradation of TPM3-TRKA protein at 0.01 µM [1, 3] of over 80% and an IC50 [2, 4] of 17 nM.
O=C1CCC(N2C(=O)c3ccc(NCCCC(=O)N4CCC(Nc5cccc(C(=O)Nc6cnn7ccc(N8CCC[C@@H]8c8cc(F)ccc8F)nc67)n5)CC4)cc3C2=O)C(=O)N1 (stereo partly drawn) [CPD-470, N-(5-((R)-2-(2,5-difluorophenyl)pyrrolidin-1-yl)pyrazolo[1,5-a]pyrimidin-3-yl)-6-((1-(4-((2-(2,6-dioxopiperidin-3-yl)-1,3-dioxoisoindolin-5-yl)amino)butanoyl)piperidin-4-yl)amino)picolinamide] gave a percent degradation of TPM3-TRKA protein at 0.01 µM [1, 3] of over 80% and an IC50 [2, 4] of 21 nM.
In the case of Cn1c(=O)n(C2CCC(=O)NC2=O)c2ccc(NCCN3CCN(c4ccc(C(=O)Nc5n[nH]c6ccc(Cc7cc(F)cc(F)c7)cc56)c(NC5CCOCC5)c4)CC3)cc21 (stereo not shown) [TR-324, N-(5-(3,5-difluorobenzyl)-1H-indazol-3-yl)-4-(4-(2-((1-(2,6-dioxopiperidin-3-yl)-3-methyl-2-oxo-2,3-dihydro-1H-benzo[d]imidazol-5-yl)amino)ethyl)piperazin-1-yl)-2-((tetrahydro-2H-pyran-4-yl)amino)benzamide], the percent degradation of TPM3-TRKA protein at 0.01 µM ([1]; KM12, 16 h) is reported as over 80% and the IC50 ([2]; KM12, 72 h) is reported as 1.3 nM.
O=C1CCC(N2C(=O)c3ccc(N4CCC(N5CCN(c6ccc(C(=O)Nc7n[nH]c8ccc(Cc9cc(F)cc(F)c9)cc78)c(NC7CCOCC7)c6)CC5)CC4)cc3C2=O)C(=O)N1 (stereo not shown) [TR-280, N-(5-(3,5-difluorobenzyl)-1H-indazol-3-yl)-4-(4-(1-(2-(2,6-dioxopiperidin-3-yl)-1,3-dioxoisoindolin-5-yl)piperidin-4-yl)piperazin-1-yl)-2-((tetrahydro-2H-pyran-4-yl)amino)benzamide] showed a percent degradation of TPM3-TRKA protein at 0.01 µM ([1]; KM12, 16 h) of over 80% and an IC50 ([2]; KM12, 72 h) of 4.3 nM.
In the case of O=C1CCC(N2C(=O)c3ccc(NCCOCCOCCC(=O)N4CCC(Nc5cccc(C(=O)Nc6cnn7ccc(N8CCC[C@@H]8c8cc(F)ccc8F)nc67)n5)CC4)cc3C2=O)C(=O)N1 (stereo partly drawn) [CPD-474, N-(5-((R)-2-(2,5-difluorophenyl)pyrrolidin-1-yl)pyrazolo[1,5-a]pyrimidin-3-yl)-6-((1-(3-(2-(2-((2-(2,6-dioxopiperidin-3-yl)-1,3-dioxoisoindolin-5-yl)amino)ethoxy)ethoxy)propanoyl)piperidin-4-yl)amino)picolinamide], the percent degradation of TPM3-TRKA protein at 0.01 µM [1, 3] is reported as over 80% and the IC50 [2, 4] is reported as 18 nM.
O=C1CCC(N2C(=O)c3ccc(CN4CC(N5CCN(c6ccc(C(=O)Nc7n[nH]c8ccc(Cc9cc(F)cc(F)c9)cc78)c(NC7CCOCC7)c6)CC5)C4)cc3C2=O)C(=O)N1 (stereo not shown) [TR-254, N-(5-(3,5-difluorobenzyl)-1H-indazol-3-yl)-4-(4-(1-((2-(2,6-dioxopiperidin-3-yl)-1,3-dioxoisoindolin-5-yl)methyl)azetidin-3-yl)piperazin-1-yl)-2-((tetrahydro-2H-pyran-4-yl)amino)benzamide] showed a percent degradation of TPM3-TRKA protein at 0.01 µM ([1]; KM12, 16 h) of over 80% and an IC50 ([2]; KM12, 72 h) of 20.3 nM.
Compound Cn1c(=O)n(C2CCC(=O)NC2=O)c2cccc(NCCCN3CCN(c4ccc(C(=O)Nc5n[nH]c6ccc(Cc7cc(F)cc(F)c7)cc56)c(NC5CCOCC5)c4)CC3)c21 (stereo not drawn) [TR-315, N—(S-(3,5-difluorobenzyl)-1H-indazol-3-yl)-4-(4-(3-((1-(2,6-dioxopiperidin-3-yl)-3-methyl-2-oxo-2,3-dihydro-1H-benzo[d]imidazol-4-yl)amino)propyl)piperazin-1-yl)-2-((tetrahydro-2H-pyran-4-yl)amino)benzamide] has a percent degradation of TPM3-TRKA protein at 0.01 µM [1, 5] of over 80% and an IC50 [2, 6] of 4.5 nM.
Compound Cn1c(=O)n(C2CCC(=O)NC2=O)c2cccc(CCCN3CCN(c4cccc(-c5cnc6ccc(N7CCC[C@@H]7c7cccc(F)c7)nn56)n4)CC3)c21 (stereo partly drawn) [TR-240, 3-(4-(3-(4-(6-(6-((R)-2-(3-fluorophenyl)pyrrolidin-1-yl)imidazo[1,2-b]pyridazin-3-yl)pyridin-2-yl)piperazin-1-yl)propyl)-3-methyl-2-oxo-2,3-dihydro-1H-benzo[d]imidazol-1-yl)piperidine-2,6-dione] has a percent degradation of TPM3-TRKA protein at 0.01 µM [1, 5] of over 80% and an IC50 [2, 6] of 16.1 nM.
With Cn1c(=O)n(C2CCC(=O)NC2=O)c2ccc(OCCN3CCN(c4cccc(-c5cnc6ccc(N7CCC[C@@H]7c7cccc(F)c7)nn56)n4)CC3)cc21 (stereo partly drawn) [TR-246, 3-(5-(2-(4-(6-(6-((R)-2-(3-Fluorophenyl)pyrrolidin-1-yl)imidazo[1,2-b]pyridazin-3-yl)pyridin-2-yl)piperazin-1-yl)ethoxy)-3-methyl-2-oxo-2,3-dihydro-1H-benzo[d]imidazol-1-yl)piperidine-2,6-dione] the percent degradation of TPM3-TRKA protein at 0.01 µM [1, 5] was over 80% and the IC50 [2, 6] was 101 nM.
With O=C(CN1CCN(c2cccc(-c3cnc4ccc(N5CCC[C@@H]5c5cccc(F)c5)nn34)n2)CC1)NCCOCCNc1cccc2c1C(=O)N(C1CCC(=O)NC1=O)C2=O (stereo partly drawn) [TR-106, N-(2-(2-((2-(2,6-dioxopiperidin-3-yl)-1,3-dioxoisoindolin-4-yl)amino)ethoxy)ethyl)-2-(4-(6-(6-((R)-2-(3-fluorophenyl)pyrrolidin-1-yl)imidazo[1,2-b]pyridazin-3-yl)pyridin-2-yl)piperazin-1-yl)acetamide] the percent degradation of TPM3-TRKA protein at 0.01 µM [1, 5] was 50 to 80% and the IC50 [2, 6] was 3.8 nM.
